Experimental findings from article PMC7236056 (ACS Medicinal Chemistry Letters, 2020) are described below.

Each structure is given as a SMILES string.

The target of one experiment is T1, hPPARγ (Homo sapiens, UniProt P37231).
T1 sequence (P37231 238-503 limits assumed): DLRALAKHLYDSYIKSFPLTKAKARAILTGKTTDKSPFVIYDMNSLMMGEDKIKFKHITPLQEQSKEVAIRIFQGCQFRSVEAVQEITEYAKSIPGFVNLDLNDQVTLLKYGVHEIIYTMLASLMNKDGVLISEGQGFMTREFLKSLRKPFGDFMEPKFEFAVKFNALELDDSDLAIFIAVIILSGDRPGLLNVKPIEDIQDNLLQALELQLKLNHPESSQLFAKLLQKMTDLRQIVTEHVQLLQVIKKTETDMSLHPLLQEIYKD
Description: GAL-4 PPAR transactivation assay, agonist activity. As to conditions: 1, 2.5 and 5 μM; HepG2; data not shown.

Another experiment concerns the target T2, hPPARα (Homo sapiens, UniProt Q07869).
T2 sequence (Q07869 239-466 limits assumed): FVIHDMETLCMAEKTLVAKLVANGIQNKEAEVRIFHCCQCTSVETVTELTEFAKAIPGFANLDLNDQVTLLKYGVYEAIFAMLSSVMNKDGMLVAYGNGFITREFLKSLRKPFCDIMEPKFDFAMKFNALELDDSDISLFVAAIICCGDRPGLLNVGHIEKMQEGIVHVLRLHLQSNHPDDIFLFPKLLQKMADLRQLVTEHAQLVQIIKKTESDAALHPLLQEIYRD
Nature of the experiment: GAL-4 PPAR transactivation assay, agonist activity. As to conditions: 1, 2.5 and 5 μM; HepG2.

Experiment [1] relates to paraganglioma (PGL) cell lines (PTJ64i, PTJ86i). Description: MTT cell viability, paraganglioma cell lines. It counts as cell-based. As to conditions: Homo sapiens, 72 h, read-out: inhibition rate in the PGL cell lines.
Experiment [2] relates to colorectal cancer cell lines (HT-29, SW480). Description: MTT cell viability, colorectal cancer cell lines. It counts as cell-based. As to conditions: Homo sapiens, 72 h, read-out: inhibition rate in the colon cancer cell lines.
For experiment [3], the system named is eight human cancer cell lines (AsPC-1, BxPC-3, Capan-2, HT-29, SW480, PTJ64i, PTJ86i, A498). Nature of the experiment: MTT cell viability, eight human cancer cell lines, single concentration. As to conditions: 75 μM, 72 h. It counts as cell-based.
The subject of another experiment is CPT1A. Description: Expression of PPARα target gene CPT1A by RTqPCR. As to conditions: HepG2, 48 h; test compounds 0.5 µM, GW7647 2 µM. It counts as cell-based, human. For orientation: In qPCR the cycle at which signal appears reflects the starting amount.

Take `CC(C)(Oc1ccc(CCOc2ccc(/N=N/c3ccccc3)cc2)cc1)C(=O)NS(=O)(=O)c1ccccc1` [2b]: the “agonist activity on PPARγ” value on hPPARγ is given as “no detectable PPARα/γ activity”. Further, on hPPARα, the “agonist activity on PPARα” value is on record as “no detectable PPARα/γ activity”.

`CC(C)(Oc1ccc(CCOc2ccc(/N=N/c3ccccc3)cc2)cc1)C(=O)NS(=O)(=O)c1ccc(Cl)cc1` [3c]: the inhibition (in general, the drop in the measured response relative to a control, in per cent) at 75 µM lay within 84 to 98% in experiment [1] and 52 to 98% in experiment [2].

As to `CC(C)(Oc1ccc(CCOc2ccc(/N=N/c3ccccc3)cc2)cc1)C(=O)NS(=O)(=O)c1ccc([N+](=O)[O-])cc1` [3d], the inhibition at 75 µM in experiment [1] was 84 to 98%; in experiment [2] it was 52 to 98%.

For `CC(C)(Oc1ccc(CCOc2ccc(NC(=O)c3ccccc3)cc2)cc1)C(=O)NS(=O)(=O)c1ccccc1` [10e], the figures for the inhibition at 75 µM in experiment [1] and in experiment [2] were 84 to 98% and 52 to 98%, respectively.

Take `CCC(=O)NC[C@H](Cc1ccc(OCCc2nc(-c3ccccc3)oc2C)cc1)N/C(C)=C\C(=O)c1ccc(C(F)(F)F)cc1` [GW6471, reference compound]: the inhibition at 75 µM in experiment [1] fell in the range of 85 to 92%. For the same compound, the “effect on cell viability across the tumor cell lines tested” value in experiment [3] is “showed antiproliferative activities”.

For the compound `CC(C)(Sc1ccc(CCN(CCCCC2CCCCC2)C(=O)NC2CCCCC2)cc1)C(=O)O` [GW7647], the “CPT1A mRNA expression, compound alone” value in the experiment with CPT1A is on record as “robustly stimulated CPT1A expression”.

Turning to `Cc1cccc(Nc2cc(Cl)nc(SCC(=O)O)n2)c1C` [Wy-14,643], the “effect on cell viability across the tumor cell lines tested” value in experiment [3] was “did not affect cell viability”.
